{
  "source": "patent US20040138245A1",
  "about": "“Product comprising mikanolide, dihydromikanolide or an analogue thereof combine with another anti-cancer agent for therapeutic use in cancer treatment” (priority 2001, published 2004)",
  "system": "HT-29 (human colon cancer cells)",
  "experiment": "Measurement of cellular proliferation in vitro (WST1 colorimetric test, 120 hours)",
  "format": "cell-based",
  "settings": "HT29 cells",
  "method": "The cell line HT-29 (human colon cancer cells) was acquired from the American Tissue Culture Collection (Rockville, Md., USA).\nThe HT-29 cells (4000 cells/wells) are cultured on 96-well plates.\nOn day 0, these cells are seeded in 90 μl of Dulbecco's modified Eagle medium (Gibco-Brl, Cergy-Pontoise, France) completed with 10% of foetal calf serum inactivated by heating (Gibco-Brl, Cergy-Pontoise, France), 50000 units/l of penicillin and 50 mg/l of streptomycin (Gibco-Brl, Cergy-Pontoise, France), and 2 mM of glutamine (Gibco-Brl, Cergy-Pontoise, France).\nThe cells were treated simultaneously with concentrations of the compounds to be tested singly or in combination for 120 hours.\nAt the end of the of this period, quantification of the cellular proliferation is evaluated by colorimetric test based on the cleavage of the tetrazolium salt WST1 by the mitochondrial […] in the living cells leading to the formation of formazan (Boehringer Mannheim, Meylan, France). These tests are carried out four times with 6 determinations for each single product and for each combination tested. This allows determination of the number of living cells at the end of each treatment.",
  "note": "Where “and” joins values, the source holds several entries; their conditions need not be identical. Equal entries are not always repeated.",
  "data": [
    {"molecule": "4-(2-bromophenyl)-1-(2-(1-((4-cyano-3-methoxy)phenylmethyl)imidazo-5-yl)-1-oxoethyl)-1,2-dihydro-8-fluoroimidazol[1,2a][1,4]-benzodiazepine [Example B4]", "values": [
      {"measurement": "% of living cells", "setting": "single compound at 5 μM", "result": "93% and 78%"}
    ]},
    {"molecule": "hydrochloride of 8-(dimethylamino)-3,10a-dimethyl-2,6-dioxodecahydro-4,7-methenofuro[3,2-c]oxireno[f]oxacycloundecin-9-yl 2-naphthylcarbamate [Example A2]", "values": [
      {"measurement": "% of living cells", "setting": "single compound at 5 μM", "result": "67% and 72% and 55%"}
    ]},
    {"molecule": "CC(C)[C@H](CO)Nc1nc(NCc2cccnc2)n2ncc(Br)c2n1", "note": "[Example B3, 8-bromo-2-(1R-isopropyl-2-hydroxyethylamino)-4-(3-pyridylmethylamino)pyrazolo[1,5-a]-1,3,5-triazine]", "values": [
      {"measurement": "% of living cells", "setting": "single compound at 100 nM", "result": 104, "unit": "%"}
    ]},
    {"molecule": "NC(CS)C(=O)N1CCn2cc(-c3ccccc3)nc2C1CC1CCCCC1", "note": "(stereo not drawn) [Example B2, 7-(2-amino-1-oxo-3-thiopropyl)-8-(cyclohexylmethyl)-2-phenyl-5,6,7,8-tetrahydroimidazo[1,2a]pyrazine]", "values": [
      {"measurement": "% of living cells", "setting": "single compound at 25 μM", "result": "37% and 64%"}
    ]},
    {"molecule": "[NH2][Pt]([NH2])([Cl])[Cl]", "note": "[Example B1, cisplatin, reference compound]", "values": [
      {"measurement": "% of living cells", "setting": "single compound at 6.25 μM", "result": 48, "unit": "%"}
    ]},
    {"molecule": "C[C@H]1C(=O)O[C@H]2C[C@]3(C)O[C@@H]3[C@@H]3O[C@@H]3C3=C[C@@H](OC3=O)[C@@H]21", "note": "[Example A1, dihydromikanolide]", "values": [
      {"measurement": "% of living cells", "setting": "single compound at 5 μg/ml", "result": "61% and 64%"}
    ]}
  ]
}
